Structures are written as SMILES. pIC50: −log10 of the molar value.

The subject of this assay is HeLa. Kind of assay: Downregulation of PMA-induced H1R mRNA expressed in human HeLa cells incubated for 1 hr prior to PMA stimulation by RT-PCR method. In kind it is functional, cell-based. To be noted: for pIC50: read-out: IC50.

In the case of `NC(=O)c1ccc2occc2c1O`, the IC50 result (hela) is recorded as “Not Active”.

One may read the pIC50 as the IC50 on a negative log10 scale, so that one unit is a factor of ten. Turning to `COc1c(C(N)=O)ccc2occc12`, the pIC50 reads like this: (Homo sapiens, HeLa) 4.12; (hela) 4.08.

In the case of `COc1c(C(=O)O)ccc2occc12`, the IC50 result (hela) is “Not Active”.

For the molecule `COc1cc2occc2cc1C(N)=O`, the pIC50 (Homo sapiens, HeLa) was 4.31.

Consider `NC(=O)c1cc2ccoc2cc1O`, for which, where the note is “Homo sapiens, HeLa”, the pIC50 was 4.07.

On to `COc1cc2occc2cc1C(=O)O`, for which, for the setting “hela”, the IC50 result is “Not Active”.
